Data published in US20240166602A1, “SUBSTITUTED DIARYL COMPOUND AS WELL AS PREPARATION METHOD AND APPLICATION THEREOF” (SHANDONG FIRST MEDICAL UNIV & SHANDONG ACADEMY OF MEDICAL …, priority 2021, published 2024).
Where two headings read alike, the source gives them in different places.

What was measured:
Assay type in all cases: cell-based
[1] = test system: human lung cancer (A549) cells; assay: MTT tumor cell growth inhibition, human lung cancer (A549); settings: A549, 48 h culture, MTT method, read-out: IC50 value of target compound against cancer cell proliferation, A549
Experimental: (§1) Dissolve CHJ compound series with dimethyl sultbxide (DMSO, final concentration 0.4%), and use RPMI-1640 culture medium containing 15% fetal calf serum to prepare 1 mg/mL solution for future use. During drug administration in groups, use the culture medium to dilute it to the concentration needed.
(§2) Cell lines: human lung cancer (A549), Inman ovarian cancer (SKOV3), human melanoma (A375) and human colon cancer (LOVO) cell lines, all purchased from the Cell Bank of the Chinese Academy of Sciences, DMEM containing 15% fetal bovine serum (High Glucose) culture medium, placed in a 37° C., 5% CO2 incubator.
(§3) MTT is an oxidizing yellow dye with the chemical name of 3-(4,5-dimethyl-2-thiazolyl)-2,5-diphenyl-2-H-tetrazoliumbromide tetrazole bromide. The MMT method, also known as the MTT colorimetric method, can test the survival and growth of cells. The method is simple and easily accessible and often used to screet the substance with cytotoxic activity. The basic principle of testing, is that succinodehydrogenase can reduce exogenous MIT so that MTT is reduced to blueviolet crystal Formazan insoluble to water. The crystal deposits in cells. The succinodehydrogenase exists in the mitochondria of living cells, not in the dead cells. Therefore, the chromogenic reaction can only take place in living cells. Then, dissolve the blueviolet crystal Formazan contained in cells with dimethyl sulfoxide (DMSO), and measure its absorbancy with microplate reader so that the count of living cells is reflected indirectly. Within the scope of certain cell count, the amount of blueviolet crystal Formazan formed is positively correlated to the count of living cells.
(§4) Human lung cancer (A549), human ovarian cancer (SKOV3), human melanoma (A375) and human colon cancer (LOVO) ceilsare all adherent. Based on the growth rate of tumor cells, wash the adherent tumor cells in the logarithmic phase and digest them in 0.25% EDTA pancreatic enzyme. Adjust the cell count to 1×10^5/mL and inoculate the cells in 96-pore plate, each pore containing 100 μL. Culture the cells in the 37° C. CO2 incubator, and administer the drug 24 h later. Add pharmaceutical (CJH compound series) of different concentrations to the administration group. Set up 5 dosage groups for each pharmaceutical, respectively 100, 10, 1, 0.1, 0.01 μmol/L. Set up three complex pores for each concentration. Set up blank control, DMSO (0.8%) solvent control and cis-platinum positive control. After 48 h of culture in the 37 ° C. incubator containing 5% CO2, measure the OD value through MTT method and calculate the cell inhibition ratio.
(§5) After 48 h of culture of human lung cancer (A549), human ovarian cancer (SKOV3). human melanoma (A375) and human colon cancer (LOVO) cells, stop it and add 10 μL 0.5% MTT solution to each pore. Place it in the CO2 incubator for 4 h. Remove the liquid from each pore, respectively add 0.2 mL DMSO solution, and oscillate it adequately on the table concentrator under low frequency so that the blueviolet crystal Formazan is dissolved adequately. Place it in the microplate reader and record the OD value at the wavelength of […]. Calculate the average OD value of three parallel pores of different concentrations, and calculate the cell inhibition ratio and IC50 of each tested pharmaceutical under different concentrations based on the average.
(§6) Inhibition ratio (%)=[1-tested sample OD/negative control group OD]×100%.

[2] = test system: human ovarian cancer (SKOV3) cells; assay: MTT tumor cell growth inhibition, human ovarian cancer (SKOV3); settings: SKOV3, 48 h culture, MTT method, read-out: IC50 value of target compound against cancer cell proliferation, SKOV3
Experimental: as §1, §2, §3, §4, §5, §6

[3] = test system: human colon cancer (LOVO) cells; assay: MTT tumor cell growth inhibition, human colon cancer (LOVO); settings: 48 h culture, MTT method, read-out: IC50 value of target compound against cancer cell proliferation, LOVO
Experimental: as §1, §2, §3, §4, §5, §6

[4] = test system: human melanoma (A375) cells; assay: MTT tumor cell growth inhibition, human melanoma (A375); settings: A375, 48 h culture, MTT method, read-out: IC50 value of target compound against cancer cell proliferation, A375
Experimental: as §1, §2, §3, §4, §5, §6

Row | IC50 ([1]; Homo sapiens) [µM] | IC50 ([2]; Homo sapiens, SK-OV-3) [µM] | IC50 ([3]; Homo sapiens) [µM] | IC50 ([4]; Homo sapiens, A-375) [µM] | SMILES | IC50 [1] [µM] | IC50 [2] [µM] | IC50 [3] [µM] | IC50 [4] [µM]
1 | 10.6 ± 3.37 | 3.26 ± 1.21 | 3.92 ± 0.56 | 3.23 ± 0.49 | COc1cc(CN(C)CC(O)COc2ccc(Cl)cc2Cl)ccc1OCCN1CCC(C)CC1 (stereo not shown) [CHJ04059, 1-(2,4-dichlorophenoxy)-3-((3-methoxy-4-(2-(4-methylpiperidin-1-yl)ethoxy)benzyl) (methyl)amino)propan-2-ol] | – | – | – | –
2 | 5.45 ± 1.03 | 1.37 ± 0.34 | 18.6 ± 3.22 | 0.98 ± 0.76 | COc1cc(CN(C)CC(O)COc2cccc(Cl)c2)ccc1OCCN1CCC(C)CC1 (stereo not shown) [CHJ04024] | – | – | – | –
3 | 42.7 ± 3.06 | 96.4 ± 2.72 | 7.54 ± 1.02 | 16.7 ± 2.48 | COc1ccc(OCC(O)CN(C)Cc2ccc(OCCN3CCC(C)CC3)c(OC)c2)cc1 (stereo not shown) [CHJ04084, 1-((3-methoxy-4-(2-(4-methylpiperidin-1-yl)ethoxy)benzyl)(methyl)amino)-3-(4-methoxyphenoxy)propan-2-ol] | – | – | – | –
4 | 4.21 ± 2.24 | 3.32 ± 1.02 | 2.55 ± 1.65 | 2.34 ± 1.63 | COc1cc(CN(C)CC(O)COc2cccc(C(F)(F)F)c2)ccc1OCCN1CCC(C)CC1 (stereo not shown) [CHJ04025, 1-((3-methoxy-4-(2-(4-methylpiperidin-1-yl)ethoxy)benzyl)(methyl)amino)-3-(3-(trifluoromethyl)phenoxy)propan-2-ol] | – | – | – | –
5 | 17.2 ± 0.79 | 6.21 ± 1.04 | 2.44 ± 0.03 | 8.68 ± 0.11 | COc1cccc(OCC(O)CN(C)Cc2ccc(OCCN3CCC(C)CC3)c(OC)c2)c1 (stereo not shown) [CHJ03017, 1-((3-methoxy-4-(2-(4-methylpiperidin-1-yl)ethoxy)benzyl)(methyl)amino)-3-(3-methoxyphenoxy)propan2-ol] | – | – | – | –
6 | 2.5 ± 1.32 | 2.9 ± 0.19 | 0.95 ± 0.41 | 0.54 ± 0.26 | COc1cc(CN(C)CC(O)COc2ccc(Cl)c(Br)c2)ccc1OCCN1CCC(C)CC1 (stereo not shown) [CHJ03043, 1-(3-bromo-4-chlorophenoxy)-3-((3-methoxy-4-(2-(4-methylpiperidia-1-yl)ethoxy)benzyl)(methyl)amino)propan-2-ol] | – | – | – | –
7 | 6.22 ± 1.34 | 3.02 ± 1.76 | 2.35 ± 1.04 | 0.73 ± 0.13 | COc1cc(CN(C)CC(O)COc2ccccc2I)ccc1OCCN1CCC(C)CC1 (stereo not shown) [CHJ04027] | – | – | – | –
8 | 0.86 ± 0.45 | 3.06 ± 1.1 | 1.16 ± 0.94 | 0.65 ± 0.14 | COc1cc(CN(C)CC(O)COc2cc(Cl)cc(Br)c2)ccc1OCCN1CCC(C)CC1 (stereo not shown) [CHJ04034, 1-(3-bromo-5-chlorophenoxy)-3-((3-methoxy-4-(2-(4-methylpiperidin1-yl)ethoxy)benzyl)(methyl)amino)propan-2-ol] | – | – | – | –
9 | 1.3 ± 1.03 | 2.48 | 1.26 ± 0.53 | 1.95 ± 0.33 | COc1cc(CN(C)CC(O)COc2cccc(Br)c2)ccc1OCCN1CCC(C)CC1 (stereo not shown) [CHJ03001, 1-(3-bromophenoxy)-3-((3-methoxy-4-(2-(4-methylpiperidin-1-yl)ethoxy)benzyl) (methyl)amino)propan-2-ol] | – | – | – | –
10 | 245.3 ± 2.4 | 102 ± 1.48 | 54 ± 2.14 | 56.21 ± 0.55 | COc1cc(CN(C)CC(O)COc2cccc(NC(C)=O)c2)ccc1OCCN1CCC(C)CC1 (stereo not shown) [CHJ04058, N-(3-(2-hydroxy-3((3-methoxy-4-(2-(4-methylpiperidin-1-yl)ethoxy)benzyl)(methyl)amino)propoxy)phenyl)acetamide] | – | – | – | –
11 | 1.38 ± 1.14 | 3.4 ± 1.17 | 3.83 ± 1.8 | 1.6 ± 0.92 | COc1cc(CN(C)CC(O)COc2ccc(F)c(Br)c2)ccc1OCCN1CCC(C)CC1 (stereo not shown) [CHJ04020, 1-(3-bromo-4-fluorophenoxy)-3-((3-methoxy-4-(2-(4-methylpiperidin-1-yl)ethoxy)benzyl)(methyl)amino)propan-2-ol] | – | – | – | –

The next lines start with the molecule.

Row | SMILES | IC50 ([1]; Homo sapiens) [µM] | IC50 ([2]; Homo sapiens, SK-OV-3) [µM] | IC50 ([3]; Homo sapiens) [µM] | IC50 ([4]; Homo sapiens, A-375) [µM] | IC50 [1] [µM] | IC50 [2] [µM] | IC50 [3] [µM] | IC50 [4] [µM]
12 | COc1cc(CN(C)CC(O)COc2ccc(Br)c(C(F)(F)F)c2)ccc1OCCN1CCC(C)CC1 (stereo not shown) [CHJ02049, 1-(4-bromo-3-(trifluoromethyl)phenoxy)-3-((3-methoxy-4-(2-(4-methylpiperidin-1-yl)ethoxy)benzyl)(methyl)amino)propan-2-ol] | 0.52 ± 0.23 | 0.62 ± 0.08 | 1.25 ± 0.03 | 0.62 ± 0.04 | – | – | – | –
13 | COc1cc(CN(C)CC(O)COc2ccccc2C(F)(F)F)ccc1OCCN1CCC(C)CC1 (stereo not shown) [CHJ04082] | 22.3 ± 1.98 | 28.5 ± 5.22 | 2.82 ± 1.05 | 7.51 ± 2.62 | – | – | – | –
14 | COc1cc(CN(C)CC(O)COc2cc(C(F)(F)F)ccc2Br)ccc1OCCN1CCC(C)CC1 (stereo not shown) [CHJ04011] | 4.05 ± 1.12 | 2.41 ± 1.03 | 1.01 ± 0.08 | 0.48 ± 0.28 | – | – | – | –
15 | COc1cc(CN(C)CC(O)COc2cc(C(F)(F)F)ccc2Br)ccc1OCCn1ccnc1 (stereo not shown) [CHJ04099, 1-((4-(2-(1H-imidazol-1yl)ethoxy)-3-methoxybenzyl)(methyl)amino)-3-(2-bromo-5-(trifluoromethyl)phenoxy)propan-2-ol] | 23.1 ± 2.58 | 37.4 ± 2.48 | 38.2 ± 2.94 | 16.2 ± 2.11 | – | – | – | –
16 | CCN(CC)CCOc1ccc(CN(C)CC(O)COc2c(Cl)cc(Br)cc2Cl)cc1OC (stereo not shown) [CHJ04094, 1-(4-bromo-2,6-dichlorophenoxy)-3-((4-(2-(diethylamino)ethoxy)-3-methoxybenzyl) (methyl)amino)propan-2-ol] | 18.4 ± 3.17 | 15.9 ± 2.11 | 28.5 ± 4.42 | 2.05 ± 1.01 | – | – | – | –
17 | COc1cc(CN(C)CC(O)COc2cc(Cl)cc(Cl)c2)ccc1OCCN1CCCC1 (stereo not shown) [CHJ04066, 1-(3,5-dichlorophenoxy)-3-((3-methoxy-4-(2-(pyrrolidin-1-yl)ethoxy)benzyl)(methyl)amino)propan-2-ol] | 29.9 ± 2.45 | 77.1 ± 4.07 | 2.5 ± 0.65 | 10.3 ± 1.4 | – | – | – | –
18 | N.N.[Cl][Pt][Cl] [cisplatin, reference compound] | – | – | – | – | 4.21 ± 1.31 | 1.91 ± 0.43 | 2.64 ± 1.12 | 5.91 ± 1.64
19 | COc1cc(CN(C)CC(O)COc2ccc(Br)cc2OC)ccc1OCCN1CCC(C)CC1 (stereo not shown) [CHJ03005, 1-(4-bromo-2-methoxypbenoxy)-3-((3-methoxy-4-(2-(4-methylpiperidin-1-yl)ethoxy)benzyl)(methyl)amino)propan-2-ol] | 15.6 ± 0.16 | 3.99 ± 0.21 | 6.66 ± 0.11 | 5.6 ± 0.81 | – | – | – | –
20 | COc1cc(CN(C)CC(O)COc2ccc(Br)cc2)ccc1OCCn1ccnc1 (stereo not shown) [CHJ05001] | 30.7 ± 3.12 | 40.1 ± 3.02 | 49.1 ± 2.71 | 15.8 ± 1.73 | – | – | – | –
21 | COc1cc(CN(C)CC(O)COc2ccc(Br)c(C(F)(F)F)c2)ccc1OCCn1ccnc1 (stereo not shown) [CHJ04097, 1-((4-(2-(1H-imidazol-1-yl)ethoxy)-3-methoxybenzyl)(methyl)amino)-3-(4-bromo-3-(trifluoromethyl)phenoxy)propari-ol] | 24.4 ± 2.78 | 33.6 ± 2.47 | 32.1 ± 3.39 | 14.8 ± 2.77 | – | – | – | –
22 | CCN(CC)CCOc1ccc(CN(C)CC(O)COc2ccc(F)c(Br)c2)cc1OC (stereo not shown) [CHJ04092, 1-(3-bromo-4-fluorophenoxy)-3-((4-(2-(diethylamino)ethoxy)-3-methoxybenzyl)(methyl)amino)propan-2-ol] | 30.2 ± 2.76 | 34.5 ± 2.7 | 47.9 ± 3.43 | 11.2 ± 1.05 | – | – | – | –
